Results on 47 compounds are retold here after patent US11286268B1, “EIF4E-inhibiting compounds and methods” (EFFECTOR THERAPEUTICS, INC., priority 2019, dated 2022).

Read-outs that look alike come from different tables or passages of the source. Where only a bound is given, the exact number is not on record here.

The experiment addresses recombinant eIF4E (Homo sapiens (Human), UniProt P06730). The experiment can be described thus: Fluorescence polarization competition assay for eIF4E binding potency. In short, it runs like this: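 IC50 values reflect 50% displacement of 20 nM EDA-m7GDP-ATTO-550 from 75 nM eIF4E, measured by fluorescence polarization after 30 min at room temperature. Buffer: 20 mM Tris pH 7.5, 100 mM NaCl, 1 mM DTT, 0.02% Tween-20; 1% DMSO.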

Where [1] appears, read: fluorescence polarization competition, 75 nM recombinant eIF4E, 20 nM EDA-m7GDP-ATTO-550, IC50 class, read-out: elF4E FP.
Where [2] appears, read: inhibition of eIF4E/EDA-m7GDP-ATTO-550 binding by 50%, Table 4B calculated values, read-out: IC50.
Setting [3] is: inhibition of eIF4E/EDA-m7GDP-ATTO-550 binding, calculated IC50 values, Table 4B, read-out: IC50.

Chain of recombinant eIF4E (P06730 whole entry): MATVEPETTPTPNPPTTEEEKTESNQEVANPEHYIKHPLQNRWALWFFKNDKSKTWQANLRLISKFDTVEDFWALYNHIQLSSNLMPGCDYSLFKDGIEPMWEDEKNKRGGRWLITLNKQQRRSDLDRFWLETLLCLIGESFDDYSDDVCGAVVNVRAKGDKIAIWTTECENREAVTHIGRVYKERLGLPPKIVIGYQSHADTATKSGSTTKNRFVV

Turning to `Cc1nc2cc(OC(F)(F)F)cc(C#N)c2c(=O)n1CCOc1ccc(Cl)cc1-c1ccnc2c(C(=O)O)csc12` [compound 456], the IC50 is, setting by setting: under setting [1], under 50 nM; under setting [2], 10.9 nM.

For the compound `Cc1cc(-c2cc(Cl)ccc2OCCn2c(C)nc3cc(C(F)(F)F)c(-c4cccnc4C)c(C#N)c3c2=O)c2scc(C(=O)O)c2n1` [compound 735], the IC50 under setting [1] fell in the range of 50 to 1000 nM and the IC50 under setting [2] is 58 nM.

For the compound `Cc1nc2cnc(N(C)C3CCN(CC(C)(F)F)CC3)c(C#N)c2c(=O)n1CC#Cc1ccc(Cl)cc1-c1ccnc2c(C(N)=O)csc12` [compound 1596], the IC50 under setting [3] is 654 nM.

Turning to `Cc1nc2cc(C(F)(F)F)c(N3CCN(C)CC3)c(C#N)c2c(=O)n1CCOc1ccc(Cl)cc1-c1ncnc2ccsc12` [compound 1250], the IC50 was 50 to 1000 nM under setting [1] and 75.8 nM under setting [3].

As to `Cc1c(C(F)(F)F)c2cc(C(F)(F)F)cc(C#N)c2c(=O)n1CCOc1ccc(Cl)cc1-c1ccnc2c(C(=O)O)csc12` [compound 268], the IC50 under setting [1] was under 50 nM and the IC50 under setting [2] was 34.1 nM.

On to `Cc1cc(-c2cc(Cl)ccc2OCCn2c(C)nc3cnc(N(C)C4CCN(C)CC4)c(C#N)c3c2=O)c2sc(C)c(C(=O)O)c2n1` [compound 848], for which the IC50 under setting [1] was under 50 nM and the IC50 under setting [2] was 26.9 nM.

As for `Cc1cc(-c2cc(Cl)ccc2OCCn2c(C)nc3cc(CN(C)C)c(OC(C)C)c(C#N)c3c2=O)c2scc(C(=O)O)c2n1` [compound 370], the IC50 reads like this: under setting [1], under 50 nM; under setting [2], 12.1 nM.

Turning to `Cc1cc(-c2cc(Cl)ccc2OCCn2c(C)nc3cnc(-c4ccc5ncsc5c4)c(C#N)c3c2=O)c2scc(C(=O)O)c2n1` [compound 993], the IC50 is, setting by setting: under setting [1], under 50 nM; under setting [2], 15.6 nM.

In the case of `N#Cc1ccc2ncn(CCOc3ccc(Cl)cc3-c3cccc(C(=O)O)c3)c(=O)c2c1` [compound 74], the IC50 is 50 to 1000 nM under setting [1] and 423 nM under setting [2].

`Cc1nc2cnc(N(C)C3CCN(CC(F)(F)C(F)F)CC3)c(C#N)c2c(=O)n1CC#Cc1ccc(Cl)cc1-c1ccnc2c(C(=O)NS(=O)(=O)c3cccnc3)csc12` [compound 1707]: the IC50 under setting [3] is 15.7 nM.

As to `Cc1ccc(F)c(-c2c(C(F)(F)F)cc3nc(C)n(CCOc4ccc(Cl)cc4-c4cc(C)nc5c(C(=O)O)csc45)c(=O)c3c2C#N)n1` [compound 434], the IC50 was under 50 nM under setting [1] and 7.76 nM under setting [2].

Turning to `Cc1nc2cncc(C#N)c2c(=O)n1CC#Cc1ccc(Cl)cc1-c1ccc(C(=O)O)c(C(=O)O)c1` [compound 149], the IC50 reads like this: under setting [1], 50 to 1000 nM; under setting [2], 110 nM.

As to `Cc1nc2cnc(N(C)C3CCN([C@H]4C[C@H](OC(F)F)C4)CC3)c(C#N)c2c(=O)n1CC#Cc1ccc(Cl)cc1-c1ccnc2c(C(=O)NS(=O)(=O)C3COC3)csc12` [compound 1762], the IC50 under setting [3] was 25 nM.

With `Cc1nc2cnc(N3CCN(CC(F)(F)Cl)CC3)c(C#N)c2c(=O)n1CCOc1ccc(Cl)cc1-c1ccnc2c(C(=O)O)csc12` [compound 1474], under setting [3], the IC50 is 13.8 nM.

`COCCN1CCN(c2c(C(F)(F)F)cc3nc(C)n(CCOc4ccc(Cl)cc4-c4ccnc5c(C(=O)O)csc45)c(=O)c3c2C#N)CC1` [compound 1243]: the IC50 is under 50 nM under setting [1] and 5.55 nM under setting [3].

For the compound `N#Cc1cc(C(F)(F)F)cc2nc(CF)n(CCOc3ccc(Cl)cc3-c3cccc(C(=O)O)c3)c(=O)c12` [compound 182], the IC50 runs as follows: under setting [1], under 50 nM; under setting [2], 43.8 nM.

As to `CCc1cc(-c2cc(Cl)ccc2OCCn2c(C)nc3cc(CN(C)C)c(OC(F)F)c(C#N)c3c2=O)c2scc(C(=O)O)c2n1` [compound 639], the IC50 under setting [1] was under 50 nM.

As to `CCN(c1ncc2nc(C)n(CC#Cc3ccc(Cl)cc3-c3ccnc4c(C(=O)NS(=O)(=O)C(C)(C)C)csc34)c(=O)c2c1C#N)C1CCN(C2COC2)CC1` [compound 1747], the IC50 under setting [3] is 16.5 nM.

`Cc1nc2cnc(N3CCN(CC(F)F)CC3)c(C#N)c2c(=O)n1CC#Cc1ccc(Cl)cc1-c1ccnc2c(C(=O)NS(C)(=O)=O)csc12` [compound 1487]: under setting [3], the IC50 is 25.4 nM.

Consider `Cc1nc2cnc(C3=CCN(CC(F)F)CC3)c(C#N)c2c(=O)n1CC#Cc1ccc(Cl)cc1-c1ccnc2c(C(=O)O)csc12` [compound 1463], for which the IC50 under setting [3] is 22.9 nM.

In the case of `Cc1cc(-c2cc(Cl)ccc2OCCn2c(C)nc3cc(Cl)c(C4CC4)c(C#N)c3c2=O)c2scc(C(=O)O)c2n1` [compound 1050], the IC50 under setting [1] was under 50 nM and the IC50 under setting [2] is 19.5 nM.

As for `Cc1nc2cc(Cl)c(Cl)c(C#N)c2c(=O)n1CCOc1ccc(C#N)cc1-c1ccnc2c(C(=O)O)csc12` [compound 290], the IC50 runs as follows: under setting [1], under 50 nM; under setting [2], 42.7 nM.

Consider `Cc1nc2cnc(N(C)C3CCN(C)C3)c(C#N)c2c(=O)n1CCOc1ccc(Cl)cc1-c1ccnc2c(C(=O)O)csc12` (stereo not drawn) [compound 1323], for which the IC50 under setting [3] was 73 nM.

`Cc1ccc(S(=O)(=O)NC(=O)c2csc3c(-c4cc(Cl)ccc4C#CCn4c(C)nc5cnc(N(C)C6CCN(CC(C)(F)F)CC6)c(C#N)c5c4=O)ccnc23)cn1` [compound 1680]: the IC50 under setting [3] is 23.3 nM.

Regarding `Cc1nc2cnc(/C=C/CN(C)CCF)c(C#N)c2c(=O)n1CCOc1ccc(Cl)cc1-c1ccnc2c(C(=O)O)csc12` [compound 1328], the IC50 under setting [3] is 24.8 nM.

Regarding `Cc1nc2cnc(N3CCC4(CC3)CCN4CC(F)F)c(C#N)c2c(=O)n1CCOc1ccc(Cl)cc1-c1ccnc2c(C(=O)O)csc12` [compound 1647], the IC50 under setting [3] is 19.6 nM.

Regarding `Cc1cc(-c2cc(Cl)ccc2OCCn2c(C)nc3cc(C(F)(F)F)c(-c4ncccc4F)c(C#N)c3c2=O)c2scc(C(=O)O)c2n1` [compound 751], the IC50 reads like this: under setting [1], 50 to 1000 nM; under setting [2], 69.8 nM.

On to `Cc1nc2cnc(N(C)C3CCN(CC(C)(F)F)CC3)c(C#N)c2c(=O)n1CC#Cc1ccc(Cl)cc1-c1ccnc2c(C(=O)NS(=O)(=O)C3COC3)csc12` [compound 1183], for which the IC50 runs as follows: under setting [1], under 50 nM; under setting [2], 23.2 nM.

In the case of `Cc1cc(-c2cc(Cl)ccc2OCCn2c(C)cc3cnc(-c4cc(F)cnc4C)c(C#N)c3c2=O)c2scc(C(=O)O)c2n1` [compound 1001], the IC50 by setting is: under setting [1], under 50 nM; under setting [2], 31.2 nM.

In the case of `Cc1nc2cc(C(F)(F)F)c(N3CCN(CC(F)F)CC3)c(C#N)c2c(=O)n1CCOc1ccc(Cl)cc1-c1ccnc2c(C(=O)O)csc12` [compound 1239], the IC50 reads like this: under setting [1], under 50 nM; under setting [3], 18.2 nM.

Take `Cc1nc2cnc(N(C)C3CCN([C@H]4C[C@@H](OC(F)(F)F)C4)CC3)c(C#N)c2c(=O)n1CC#Cc1ccc(Cl)cc1-c1ccnc2c(C(=O)NS(C)(=O)=O)csc12` [compound 1772]: under setting [3], the IC50 was 6.07 nM.

In the case of `Cc1nc2cnc(N3CCC(N4CC(F)(F)C4)CC3)c(C#N)c2c(=O)n1CC#Cc1ccc(Cl)cc1-c1ccnc2c(C(=O)O)csc12` [compound 1467], the IC50 under setting [3] is 11 nM.

`Cc1cc(-c2cc(Cl)ccc2OCCn2c(C)nc3cc(C(F)(F)F)c(S(C)(=O)=O)nc3c2=O)c2scc(C(=O)O)c2n1` [compound 782]: the IC50 was under 50 nM under setting [1] and 4.03 nM under setting [2].

With `N#Cc1cncc2nc(CCC(=O)O)n(CCOc3ccc(Cl)cc3-c3ccccc3)c(=O)c12` [compound 48], the IC50 was 50 to 1000 nM under setting [1] and 631 nM under setting [2].

As to `Cc1nc2cc(C(F)(F)F)c(N3CCN(C4CC4)CC3)c(C#N)c2c(=O)n1CCOc1ccc(Cl)cc1-c1ccnc2c(P(=O)(O)O)csc12` [compound 1615], the IC50 under setting [3] is 14.7 nM.

For the compound `Cc1nc2cnc(N(C)C3CCN(C4COC4)CC3)c(C#N)c2c(=O)n1CC#Cc1ccc(Cl)cc1-c1ccnc2c(C(=O)NS(C)(=O)=O)csc12` [compound 1561], the IC50 under setting [3] was 13 nM.

For the compound `Cc1nc(N(C)C2CCN(CC(C)(F)F)CC2)c(C#N)c2c(=O)n(CCOc3ccc(Cl)cc3-c3ccnc4c(C(=O)O)csc34)c(C)nc12` [compound 1562], the IC50 under setting [3] is 16.8 nM.

Consider `Cc1nc2cc(C(F)(F)F)c(CN3CCN(C)CC3)c(C#N)c2c(=O)n1CCOc1ccc(Cl)cc1-c1ccnc2c(C(=O)O)csc12` [compound 502], for which the IC50 is, setting by setting: under setting [1], under 50 nM; under setting [2], 38.4 nM.

Regarding `Cc1c(Cl)c2cc(C(F)(F)F)cc(C#N)c2c(=O)n1CCOc1ccc(Cl)cc1-c1ccnc2c(C(=O)O)csc12` [compound 218], the IC50 runs as follows: under setting [1], under 50 nM; under setting [2], 16.9 nM.

Regarding `Cc1nc2cnc(C3=CCN(CCF)CC3)c(C#N)c2c(=O)n1CC#Cc1ccc(Cl)cc1-c1ccnc2c(C(=O)O)csc12` [compound 1462], the IC50 under setting [3] is 20.1 nM.

As for `Cc1nc2cc(C(F)(F)F)cc(C#N)c2c(=O)n1CCOc1ccc(Cl)cc1-c1ccnc2c(-c3cc(O)no3)csc12` [compound 1375], the IC50 under setting [3] was 83.9 nM.

With `Cc1nc2cc(Cl)c(OC(F)(F)F)c(C#N)c2c(=O)n1CCOc1ccc(Cl)cc1-c1ccnc2c(C(=O)O)csc12` [compound 550], the IC50 runs as follows: under setting [1], 50 to 1000 nM; under setting [2], 87.8 nM.

Regarding `Cc1nc2cc(C(C)(F)F)cc(C#N)c2c(=O)n1CCOc1ccc(Cl)cc1-c1ccnc2c(C(=O)O)csc12` [compound 217], the IC50 was 50 to 1000 nM under setting [1] and 55.4 nM under setting [2].

In the case of `Cc1nc2cc(C(F)(F)F)cc(C#N)c2c(=O)n1CCOc1ccnnc1-c1ccnc2c(C(=O)O)csc12` [compound 453], the IC50 by setting is: under setting [1], over 1000 nM; under setting [2], 2320 nM.

As for `Cc1cc(-c2c(F)cc3nc(C)n(CCOc4ccc(Cl)cc4-c4cc(C)nc5c(C(=O)O)csc45)c(=O)c3c2C#N)ccn1` [compound 778], the IC50 runs as follows: under setting [1], under 50 nM; under setting [2], 0.0702 nM.

Turning to `Cc1nc2cc(C#N)c(C(F)F)c(C#N)c2c(=O)n1CCOc1ccc(Cl)cc1-c1cccc(C(=O)O)c1` [compound 63], the IC50 runs as follows: under setting [1], under 50 nM; under setting [2], 25.8 nM.

Turning to `Cc1nc2c(C(F)F)nc(C#N)cc2c(=O)n1CCOc1ccc(Cl)cc1-c1cccc(C(=O)O)c1` [compound 33], the IC50 reads like this: under setting [1], 50 to 1000 nM; under setting [2], 203 nM.
